The source of these data is patent US8735395B2, “Protease inhibitors” (Medivir AB, priority 2008, dated 2014).

For orientation: microsomal CLint means the rate of metabolic loss divided by the concentration. Higher therefore signals faster metabolism. In general, Ki refers to a measure of affinity in units of concentration, obtained from inhibition or displacement. For orientation: Papp means a coefficient for how fast a substance crosses the barrier. A low value points to slow passage.

A short description of series [1]: Metabolic stability in liver microsomes (HLM CLint). To be noted: human. Type of series: in vitro ADME. The procedure:
(§1) Alternatively, an analogous stability assay is carried out in human or monkey whole blood and/or commercially available liver microsomes, such as XEN 025.

Series [2] addresses human cathepsin L (Homo sapiens (Human), UniProt P07711). As to the kind of experiment: Cathepsin L Ki. Type of series: biochemical. The procedure: The procedure above with the following amendments is used for the determination of Ki for cathepsin L.
The enzyme is commercially available human cathepsin L (for example Calbiochem). The substrate is H-D-Val-Leu-Lys-AMC available from Bahcem. The assay buffer is 100 mM sodium acetate 1 mM EDTA, pH5.5) The DMSO stock (10 mM in 100% DMSO) is diluted to 10% in assay buffer. Enzyme is prepared at 5 nM concentration in assay buffer plus 1 mM dithiothreitol just before use. 2 ul of 10 mM inhibitor made up in 100% DMSO is dispensed into row A. 10 μl of 50 μM substrate (=1/200 dilution of 10 mM stock in DMSO, diluted in assay buffer)
(§2) Potential inhibitors are screened using the above assay with variable concentrations of test compound. Reactions were initiated by addition of enzyme to buffered solutions of substrate and inhibitor. Ki values were calculated according to equation 1.

Series [3] has as its target human recombinant cathepsin K (Homo sapiens (Human), UniProt P43235). As to the kind of experiment: Determination of cathepsin K proteolytic catalytic activity (Ki). Type of series: biochemical. The procedure:
Determination of Cathepsin K Proteolytic Catalytic Activity
Convenient assays for cathepsin K are carried out using human recombinant enzyme, such as that described in PDB.
The recombinant cathepsin K can be expressed in a variety of commercially available expression systems including E coli, Pichia and Baculovirus systems. The purified enzyme is activated by removal of the prosequence by conventional methods.
The enzyme concentration used was 5 nM. The stock substrate solution was prepared at 10 mM in DMSO. Screens were carried out at a fixed substrate concentration of 60 μM and detailed kinetic studies with doubling dilutions of substrate from 250 μM. The total DMSO concentration in the assay was kept below 3%. All assays were conducted at ambient temperature. Product fluorescence (excitation at 390 nm, emission at 460 nm) was monitored with a Labsystems Fluoroskan Ascent fluorescent plate reader. Product progress curves were generated over 15 minutes following generation of AMC product.
as §2
where v0 is the velocity of the reaction, V is the maximal velocity, S is the concentration of substrate with Michaelis constant of KM, and I is the concentration of inhibitor.

A short description of series [4]: Metabolic stability in whole blood (CLint). Type of series: in vitro ADME. The procedure:
as §1

The target in series [5] is human cathepsin S (Homo sapiens (Human), UniProt P25774). Description: Cathepsin S Ki determination. Type of series: biochemical. The procedure: 280 μl/well of 12.5% DMSO are added to rows B-H of two columns of a 96 deep well polypropylene plate. […] 200 μl/well of assay buffer is added to columns 1 and 6. […] Mix row A using a multichannel pipette and double dilute to row G. Mix row H and read in the fluorescent spectrophotometer. […] The second test compound is added to column 6 of the top row, the third to column 1 of the second row etc. Add 1 μl of comparator to column 6 of the bottom row. Mix column 1 and double dilute to column 5. Mix column 6 and double dilute to column 10. Using an 8-channel multistepping pipette set to 5×10 μl, distribute 10 μl/well of substrate to the 384 well assay plate. Distribute the first column of the substrate dilution plate to all columns of the assay plate starting at row A. The tip spacing of the multichannel pipette will correctly skip alternate rows. Distribute the second column to all columns starting at row B. Using a 12-channel multistepping pipette set to 4×10 μl, distribute 10 μl/well of inhibitor to the 384 well assay plate. Distribute the first row of the inhibitor dilution plate to alternate rows of the assay plate starting at A1. The tip spacing of the multichannel pipette will correctly skip alternate columns. […] Mix 20 ml assay buffer and 20 μl 1M DTT. […] Using the a distributor such as a Multidrop 384, add 30 μl/well to all wells of the assay plate and read in fluorescent spectrophotomoter such as an Ascent. Fluorescent readings, (excitation and emission wavelengths 390 nm and 460 nm respectively, set using bandpass filters) reflecting the extent of enzyme cleavage of the fluorescent substrate, notwithstanding the inhibitor, are linear rate fitted for each well. […] Potential inhibitors are screened using the above assay with variable concentrations of test compound. Reactions were initiated by addition of enzyme to buffered solutions of substrate and inhibitor.

Series [6] in a line: In vivo mouse PK, oral administration (FIG. 1). To be noted: male C57BI mice, oral 60 μmol/kg in 1% Methocel A4C; compared with Example 2 of WO2008 007107. The source says: FIG. 1 depicts plasma concentration against time for male C57BI mice orally administered a compound of the invention or a compound of the prior art.
Various embodiments of the invention will now be described by way of illustration only with reference to the following Examples and FIG. 1 which depicts plasma concentration against time for male C57BI mice orally administered a compound of the invention or a compound of the prior art.

Series [7] is described as follows: Caco-2 permeability. To be noted: human. (Caco-2 monolayers are a common model of the intestinal barrier.)
Description: (§3) This experiment measures transport of inhibitors through the cells of the human gastroenteric canal. The assay uses the well known Caco-2 cells with a passage number between 40 and 60.
(§4) The basolateral and the apical wells will contain 1.5 mL and 0.4 mL transport buffer (TB), respectively, and the standard concentration of the tested substances is 10 μM. Furthermore all test solutions and buffers will contain 1% DMSO. Prior to the experiment the transport plates are pre-coated with culture medium containing 10% serum for 30 minutes to avoid nonspecific binding to plastic material. After 21 to 28 days in culture on filter supports the cells are ready for permeability experiments.
(§5) In ASB screening the TB in basolateral well also contains 1% Bovine Serum Albumin.
(§6) 0.5 mL transport buffer (HBSS, 25 mM MES, pH 6.5) is added to the inserts and the cell monolayers equilibrated in the transport buffer system for 30 minutes at 37° C. in a polymix shaker. After being equilibrated to the buffer system the Transepithelial electrical resistance value (TEER) is measured in each well by an EVOM chop stick instrument. […]
(§7) 300 μL will be taken from the basolateral (receiver) wells at each scheduled time point and the post value of TEER is measured at the end the experiment. […]
FAcum is calculated from: […]
(§8) The determination of permeability coefficients (Papp, cm/s) are calculated from: […]
The conditions of series [8]: reference markers for the Caco-2 assay; cited from earlier work.
Series [9] relates to Caco-2 cells.
Description: as §3, §4, §5, §6, §7
FAcum is calculated from: […]
as §8

Sequence of human cathepsin S (P25774 115-331): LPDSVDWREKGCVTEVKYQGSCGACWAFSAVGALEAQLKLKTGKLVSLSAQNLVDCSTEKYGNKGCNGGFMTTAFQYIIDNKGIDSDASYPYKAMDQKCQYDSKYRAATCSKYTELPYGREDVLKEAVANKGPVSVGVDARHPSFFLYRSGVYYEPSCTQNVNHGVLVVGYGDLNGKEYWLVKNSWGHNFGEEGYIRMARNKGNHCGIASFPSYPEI
Sequence of human cathepsin L (P07711 114-333): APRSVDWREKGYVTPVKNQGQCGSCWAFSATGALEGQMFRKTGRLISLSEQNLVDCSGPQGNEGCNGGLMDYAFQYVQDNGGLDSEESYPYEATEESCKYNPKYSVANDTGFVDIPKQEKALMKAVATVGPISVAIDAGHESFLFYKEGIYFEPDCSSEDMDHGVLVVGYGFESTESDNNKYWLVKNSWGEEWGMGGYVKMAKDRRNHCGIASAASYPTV
Sequence of human recombinant cathepsin K (P43235 115-329): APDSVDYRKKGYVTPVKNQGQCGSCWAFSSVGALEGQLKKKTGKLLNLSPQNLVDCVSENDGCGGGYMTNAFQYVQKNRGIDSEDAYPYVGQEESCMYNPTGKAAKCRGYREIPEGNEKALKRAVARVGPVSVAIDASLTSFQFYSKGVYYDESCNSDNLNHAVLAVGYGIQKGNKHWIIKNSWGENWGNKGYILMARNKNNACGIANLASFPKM

With `C#C[C@@H]1CN(C(=O)[C@H](CC(C)C)NC(=O)c2ccc(-c3csc(N4CCN(C)CC4)n3)cc2)[C@@H]2C(=O)CO[C@H]12` [Example 1, N-[1-6-(ethynyl-3-oxo-hexahydro-furo[3,2-b]pyrrole-4-carbonyl)-3-methyl-butyl]-4-[2-(4-methyl-piperazin-1-yl)thiazol-4-yl]-benzamide], the microsomal CLint in series [1] was found to be 16 µL/min/mg; in series [4] (whole blood) it was 3 µL/min/mg. Moreover, the Ki was 1 to 5 µM in series [2] (Test 1, class symbols); 2 µM in series [2] (Test 2 or unnumbered test); less than 0.05 µM in series [3] (Test 1, class symbols); 0.0016 µM in series [3] (Test 2 or unnumbered test); more than 10 µM in series [5] (Test 1, class symbols); 25 µM in [5] (Test 2 or unnumbered test).
For `C#C[C@@H]1CN(C(=O)[C@H](CC(C)C)NC(=O)c2ccc(-c3nc(N4CCN(C)CC4)sc3F)cc2)[C@@H]2C(=O)CO[C@H]12` [Example 2, N-[1-6-(ethynyl-3-oxo-hexahydro-furo[3,2-b]pyrrole-4-carbonyl)-3-methyl-butyl]-4-[5-fluoro-2-(4-methyl-piperazin-1-yl)thiazol-4-yl]-benzamide], in [6], the “in vivo exposure (Cmax or AUC)” value is given as “very much greater”. Moreover, the Ki was 1 to 5 µM in [2] (Test 1, class symbols); 1.7 µM in series [2] (Test 2 or unnumbered test); less than 0.05 µM in series [3] (Test 1, class symbols); 0.0011 µM in [3] (Test 2 or unnumbered test); more than 10 µM in series [5] (Test 1, class symbols); 21 µM in series [5] (Test 2 or unnumbered test). Further, the apparent permeability (Papp) at 120 min, 10 µM in [7] came to 9.1 ×10⁻⁶ cm/s.
For `C#C[C@@H]1CN(C(=O)[C@H](CC(C)C)NC(=O)c2ccc(-c3csc(N4CCN(C)CC4)n3)c(F)c2)[C@@H]2C(=O)CO[C@H]12` [Example 3, N-[1-6-(ethynyl-3-oxo-hexahydro-furo[3,2-b]pyrrole-4-carbonyl)-3-methyl-butyl]-3-fluoro-4-[2-(4-methyl-piperazin-1-yl)thiazol-4-yl]-benzamide], the inhibition constant Ki in series [2] (Test 1, class symbols) was 0.501 to 1 µM; in series [2] (Test 2 or unnumbered test), 1.4 µM; in series [3] (Test 1, class symbols) it was less than 0.05 µM; in [3] (Test 2 or unnumbered test) it was 0.004 µM.
`CC(C)=C[C@@H]1CN(C(=O)[C@H](CC(C)C)NC(=O)c2ccc(-c3nc(N4CCN(C)CC4)sc3F)cc2)[C@@H]2C(=O)CO[C@H]12` [Example 4, N-[1-6-(dimethylvinyl-3-oxo-hexahydro-furo[3,2-b]pyrrole-4-carbonyl)-3-methyl-butyl]-4-[5-fluoro-2-(4-methyl-piperazin-1-yl)thiazol-4-yl]-benzamide]: the values for the Ki in series [2] (Test 2 or unnumbered test) and in series [3] (Test 2 or unnumbered test) were 0.3 µM and 0.0027 µM, respectively.
For `N[C@@H](Cc1ccccc1)C(=O)O` [L-Phenylalanine], in [8], the “% absorption in man” value is given as 100%.
As to `OC[C@@H](O)[C@@H](O)[C@H](O)[C@H](O)CO` [Mannitol], the “% absorption in man” value in series [8] is given as 16%.
Turning to `CN(Cc1cnc2nc(N)nc(N)c2n1)c1ccc(C(=O)N[C@@H](CCC(=O)O)C(=O)O)cc1` [Methotrexate], the “% absorption in man” value in [8] was 20%.
In [5] (Test 2 or unnumbered test), `CC(C)C[C@H](NC(=O)c1ccc(-c2csc(N3CCN(C)CC3)n2)cc1)C(=O)N1C[C@@H](C=C(Br)Br)[C@H]2OCC(=O)[C@H]21` [Ref Ex 9] gave a Ki of 6.1 µM.
Regarding `CC(C)C[C@H](NC(=O)c1ccc(-c2csc(N3CCN(C)CC3)n2)cc1)C(=O)N1C[C@@H](C)[C@H]2OCC(=O)[C@H]21` [comparative example], the intrinsic metabolic clearance (microsomal CLint) in series [1] came to 49 µL/min/mg. Further, the “estimated / calculated whole blood half life” value in series [4] (calculated from whole blood CLint) is on record as “little over an hour”. In series [4] (whole blood), this compound returned an intrinsic metabolic clearance (microsomal CLint) of 9 µL/min/mg and a whole blood CLint value of 9 µL/min/mg.
Turning to “N—((S)-1-((3aS,6R,6aS)-6-methoxy-oxodihydro-2H-furo[3,2-b]pyrrol-4(5H,6H,6aH)-yl)-4-methyl-oxopentan-2-yl)-4-(2-(4-methylpiperazine-1-yl)thiazol-4-yl)benzamide”, the papp value in series [9] came out at 9e-07 cm/s.
